From patent publication US5279939A, “Protein protease inhibitors from streptomyces” (SmithKline Beecham Corporation, priority 1992, dated 1994)

Test system: trypsin
Experiment: chromogenic trypsin inhibition assay using KABI S2288 substrate
Format: biochemical
Conditions: 25 ng trypsin, 410 nm
Method: Trypsin inhibitory activity was determined in a chromogenic assay using KABI S2288 as substrate (HO ILE PRO ARG p-nitroanilide.) Scisson of the ARG-p-nitroanilide bond releases p-nitroaniline which absorbs at 410 nm; thus, the extent of cleavage is measured by the increase in absorbance at 410 nm. This assay was used in qualitative manner to determine the inhibitory activity of LTI and LEP-10. Briefly, serial two fold dilutions of either conditioned medium (CM) or ammonium sulfate concentrates (AS) of conditioned medium were mixed with 25 ng of trypsin and the substrate was added. After 30 min at room temperature, the assay was stopped by addition of acetic acid. The assay was carried out in microtiter plates, which were then read in an ELISA reader. Similar samples of PSN were included as controls. […] The data shown are the absorbances measured following cleavage of the chromogenic substrate by trypsin.

Substance: plasminostreptin [PSN]
- absorbance following cleavage of the chromogenic substrate by trypsin (ammonium sulfate concentrate (AS), reciprocal dilution 1, 30 min, No Inh. control 0.763 (LTI) / 0.751 (PSN)): 0.018
- absorbance following cleavage of the chromogenic substrate by trypsin (ammonium sulfate concentrate (AS), reciprocal dilution 2, 30 min): 0.021
- absorbance following cleavage of the chromogenic substrate by trypsin (ammonium sulfate concentrate (AS), reciprocal dilution 4, 30 min): 0.023
- absorbance following cleavage of the chromogenic substrate by trypsin (ammonium sulfate concentrate (AS), reciprocal dilution 8, 30 min): 0.024
- absorbance following cleavage of the chromogenic substrate by trypsin (ammonium sulfate concentrate (AS), reciprocal dilution 16, 30 min): 0.036
- absorbance following cleavage of the chromogenic substrate by trypsin (ammonium sulfate concentrate (AS), reciprocal dilution 32, 30 min): 0.076
- absorbance following cleavage of the chromogenic substrate by trypsin (conditioned medium (CM), reciprocal dilution 1, 30 min room temperature, No Inh. control 0.898 (LTI) / 0.772 (PSN)): 0.010
- absorbance following cleavage of the chromogenic substrate by trypsin (conditioned medium (CM), reciprocal dilution 2, 30 min): 0.046
- absorbance following cleavage of the chromogenic substrate by trypsin (conditioned medium (CM), reciprocal dilution 4, 30 min): 0.046
- absorbance following cleavage of the chromogenic substrate by trypsin (conditioned medium (CM), reciprocal dilution 8, 30 min): 0.053
- absorbance following cleavage of the chromogenic substrate by trypsin (conditioned medium (CM), reciprocal dilution 16, 30 min): 0.058
- absorbance following cleavage of the chromogenic substrate by trypsin (conditioned medium (CM), reciprocal dilution 32, 30 min): 0.273
